The text below walks through data of the supplement of paper PMC11061612.

What all share (test): combination Emax (second highest fraction inhibited in the dose matrix, 72 h); higher = more inhibition; extreme values may be limits of the assay
Assay [1] deals with WIL2-NS (Non-Cancerous). Put shortly: (§1)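 Cell lines grown in DMEM/F12 or RPMI with 10% FBS were plated in 1536-well plates and held 24 hours at 37°C, 5% CO2 before 72 hours of exposure to two-drug dose matrices, with DMSO typically at 0.2%. CellTiter-Glo 2.0 luminescence gave viability, which was converted to inhibition. Vehicle wells were set to 0 and blank wells to 1. Combination Emax is the second-highest inhibition in the matrix, and Bliss excess is the observed combination effect minus the expected EA + EB − EA·EB, where EA and EB are the single-agent effects.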

The test system of assay [2] is PANC-08-13 (Pancreatic Carcinoma). The method, boiled down: as §1
The test system of assay [3] is P12-ICHIKAWA (T-Lymphoblastic Leukemia). Put shortly:
as §1

Assay [4] has as its system U251 (Low Grade Glioma). The method, boiled down:
as §1

In assay [5] the test system is EVSA-T (Breast Carcinoma). The method, boiled down:
as §1

The subject of assay [6] is KM12 (Colorectal Carcinoma). Put shortly: as §1
Assay [7] relates to DND-41 (T-Lymphoblastic Leukemia). Put shortly: as §1
In assay [8] the test system is CAMA-1 (Breast Carcinoma). The method, boiled down: as §1
Assay [9] concerns NCI-H2818 (Mesothelioma). Put shortly: as §1
Assay [10] relates to CHP-212 (Neuroblastoma). Put shortly: as §1
Assay [11] relates to WM-115 (Melanoma). Put shortly: as §1
The test system of assay [12] is NCI-H1792 (Lung Adenocarcinoma). The method, boiled down:
as §1

Assay [13] relates to HDQ-P1 (Breast Carcinoma). Put shortly: as §1
For assay [14], the system named is K-562 (Chronic Myelogenous Leukemia). The method, boiled down:
as §1

Assay [15] concerns COLO-678 (Colorectal Carcinoma). Put shortly:
as §1

The subject of assay [16] is KYSE-180 (Esophageal Squamous Cell Carcinoma). Put shortly:
as §1

The subject of assay [17] is BL-41 (Burkitt's Lymphoma). The method, boiled down: as §1
For assay [18], the system named is KCL-22 (Chronic Myelogenous Leukemia). Put shortly: as §1
Assay [19] concerns MKN28 (Gastric Carcinoma). The method, boiled down: as §1
For assay [20], the system named is BFTC-905 (Bladder Carcinoma). The method, boiled down: as §1

`NC1(C(=O)N[C@@H](CCO)c2ccc(Cl)cc2)CCN(c2ncnc3[nH]ccc23)CC1` [Capivasertib] + COc1nnc2ccc(N3CCC(c4ccc(OCCN5CCN(C)C(=O)[C@H]5C)cc4)CC3)nn12 [AZD5153] (first compound max 10 µM, 7x7, partner max 1 µM): the “combination Emax” value in [1] turned out to be 0.848; in [2], 0.668; in [3] it was 0.994; in assay [4], 0.578; in [5], 1; in assay [6] it was 0.847. For the same compound, the “combination Emax” value in assay [7] worked out at 0.679; in assay [8], 0.928; in assay [9], 0.238; in [10] it was 0.932; in assay [11], 0.778; in assay [12] it was 0.537. The “combination Emax” value in assay [13] turned out to be 0.416; in assay [14] it was 0.528; in assay [15] it was 0.396; in assay [16], 0.616; in assay [17], 0.974; in assay [18] it was 0.792. Also, the figures for the “combination Emax” value in assay [19] and in assay [20] were 0.488 and 0.681, respectively.

Take `Cc1c2c(nn1C)CSCc1cc(n(C)n1)CSc1cc(c3ccccc3c1)OCCCc1c(C(=O)O)n(C)c3c-2c(Cl)ccc13` [AZD5991] + C=CCn1c(=O)c2cnc(Nc3ccc(N4CCN(C)CC4)cc3)nc2n1-c1cccc(C(C)(C)O)n1 [AZD1775] (first compound max 1 µM, partner max 1 µM): the “combination Emax” value in [1] worked out at 0.963; in [2], 0.379; in assay [3], 1; in assay [4], 0.423; in assay [5], 1; in assay [6] it was 0.875. The “combination Emax” value was found to be 0.875 in assay [7]; 0.635 in [8]; 0.519 in assay [9]; 0.916 in [10]; 0.34 in assay [11]; 0.708 in assay [12]. Further, the “combination Emax” value in [13] was 0.579; in [14], 0.747; in [15], 0.391; in [16], 0.95; in assay [17], 1; in assay [18] it was 0.969. In addition, the “combination Emax” value in assay [19] is 0.572; in assay [20], 0.673.

In the case of `COc1nnc2ccc(N3CCC(c4ccc(OCCN5CCN(C)C(=O)[C@H]5C)cc4)CC3)nn12` [AZD5153] + Cc1c2c(nn1C)CSCc1cc(n(C)n1)CSc1cc(c3ccccc3c1)OCCCc1c(C(=O)O)n(C)c3c-2c(Cl)ccc13 [AZD5991] (first compound max 1 µM, 7x7, partner max 1 µM), the “combination Emax” value came to 0.849 in assay [1]; 0.825 in assay [2]; 1 in assay [3]; 0.65 in assay [4]; 1 in assay [5]; 0.648 in [6]. Besides, the “combination Emax” value in assay [7] was 0.845; in assay [8], 0.951; in [9] it was 0.441; in [10], 1; in [11] it was 0.707; in assay [12], 0.877. Further, the “combination Emax” value in assay [13] was found to be 0.412; in [14], 0.5; in assay [15], 0.51; in assay [16], 0.513; in assay [17], 1; in [18] it was 0.902. The “combination Emax” value in assay [19] turned out to be 0.462; in [20], 0.746.

`NC1(C(=O)N[C@@H](CCO)c2ccc(Cl)cc2)CCN(c2ncnc3[nH]ccc23)CC1` [Capivasertib] + Cn1cnc2c(F)c(Nc3ccc(Br)cc3Cl)c(C(=O)NOCCO)cc21 [Selumetinib] (first compound max 10 µM, 7x7, partner max 10 µM): the “combination Emax” value in assay [1] came to 0.771; in assay [2] it was 0.405; in assay [3], 0.748; in [4] it was 0.494; in assay [5] it was 0.947; in assay [6], 0.868. Further, the “combination Emax” value was found to be 0.233 in [7]; 0.693 in assay [8]; 0.318 in [9]; 0.946 in [10]; 0.885 in assay [11]; 0.504 in assay [12]. Besides, the “combination Emax” value in [13] was determined as 0.596; in [14], 0.425; in assay [15], 0.544; in assay [16], 0.48; in [17] it was 0.287; in assay [18], 0.604. For the same compound, the “combination Emax” value in assay [19] amounted to 0.241; in assay [20], 0.746.

Take `COc1cccc(OCCCN)c1-c1cc(Nc2cnc(C#N)cn2)n[nH]1` [Prexasertib] + CCc1c2c(nc3ccc(O)cc13)-c1cc3c(c(=O)n1C2)COC(=O)[C@]3(O)CC [SN-38] (first compound max 1 µM, 7x7, partner max 0.3 µM): the “combination Emax” value is 1 in [1]; 0.702 in assay [2]; 1 in [3]; 0.984 in [4]; 0.986 in [5]; 0.939 in assay [6]. Moreover, the “combination Emax” value is 0.943 in [7]; 0.507 in [8]; 0.423 in assay [9]; 0.827 in [10]; 0.514 in assay [11]; 0.893 in [12]. In addition, the “combination Emax” value in assay [13] amounted to 0.944; in [14], 0.983; in assay [15], 0.26; in assay [16] it was 1; in assay [17] it was 1; in [18], 0.989. Also, the “combination Emax” value was determined as 0.742 in assay [19] and 0.983 in [20].

With `Cc1c2c(nn1C)CSCc1cc(n(C)n1)CSc1cc(c3ccccc3c1)OCCCc1c(C(=O)O)n(C)c3c-2c(Cl)ccc13` [AZD5991] + CCN(CCO)CCCOc1ccc2c(Nc3cc(CC(=O)Nc4cccc(F)c4)[nH]n3)ncnc2c1 [AZD2811] (first compound max 1 µM, 7x7, partner max 1 µM), the “combination Emax” value in assay [1] came out at 0.339; in assay [2] it was 0.281; in [3] it was 1; in assay [4], 0.423; in assay [5] it was 1; in assay [6], 0.249. The “combination Emax” value in [7] stood at 0.21; in assay [8], 0.914; in assay [9] it was 0.287; in assay [10], 0.86; in assay [11], 0.232; in assay [12] it was 0.314. Besides, the “combination Emax” value in [13] was found to be 0.159; in assay [14], 0.43; in assay [15] it was 0.227; in [16], 0.942; in assay [17], 1; in [18] it was 0.921. Besides, the “combination Emax” value in assay [19] stood at 0.329; in assay [20], 0.794.
